The test system of one series is HT22 cells. The experiment in a line: Hydrogen peroxide toxicity assay in HT22 cells. It is filed as cell-based, mouse. To be noted: up to 0.3 μM, H2O2 500 μM, 24 h. The protocol: HT22 cells were seeded in 96-well plates (4×10^3 cells/well) in growth medium and incubated for 24 h at 37° C. The medium was removed and compounds were added at the indicated concentrations in fresh growth medium, and the cells were incubated for another 1 h. H2O2 was then added at a final concentration of 500 μM, and the plates were then incubated for 24 h. Cell viability was assessed by MTT assay as previously described. Values were expressed as a percentage relative to the negative (H2O2-free) control.

In series [1] the test system is amyloid-β oligomers (AβOs) in MC65 cells. The experiment in a line: Western blot (6E10) of AβOs production in MC65 cells. It is filed as cell-based. To be noted: MC65 cells after removal of TC, 6E10 antibody. On the procedure:
MC65 cells (4×10^5 cells/mL) were treated with indicated compounds for 30 h and then were lysed by sonication in a Tricine buffer solution and boiled for 5 min. Protein samples were collected from the supernatant after centrifugation of the samples at 12,800×g for 5 min, and then quantified using the Bradford method. Equal amounts of protein (20.0 μg) were separated by SDS-PAGE on a gel (Bio-Rad) and transferred onto a PVDF membrane (Bio-Rad). The blots were blocked with 5% milk in TBS-Tween 20 (0.1%) solution at room temperature for 1 h and then probed with the 6E10 antibody overnight at 4° C. The blots were washed twice in TB S-Tween 20 for 15 min, and then incubated with a 1:1000 dilution of horseradish peroxidase-conjugated secondary antibody in a 5% milk/PBS-Tween 20 solution at room temperature for 1 h. After washing twice in TBS-Tween 20 for 15 min, the proteins were visualized by a Western Blot Chemiluminescence Reagent (Thermo Fischer Scientific, Waltham, Mass.). The blots were also probed with antibodies against α-tubulin to ensure equal loading of proteins.
(In general: In western blotting, separated proteins are transferred to a membrane and probed.)

The test system of series [2] is MC65 cells. The experiment in a line: Neuroprotection assay in MC65 cells (−TC, MTT). The protocol:
MC65 cells were washed twice with PBS, resuspended in Opti-MEM, and seeded in 96-well plates (4×10^4 cells/well). Indicated compounds were then added, and cells were incubated at 37° C. under +TC or −TC conditions for 72 h. Then, 10 μL of MTT (5 mg/mL in PBS) were added and the cells were incubated for another 4 h. Cell medium was then removed, and the remaining formazan crystals produced by the cellular reduction of MTT were dissolved in DMSO. Absorbance at 570 nm was immediately recorded using a FlexStation® 3 plate reader (Molecular Devices, CA).

Series [3] deals with MC65 cells. Put plainly: Rotenone protection assay in MC65 cells. It is filed as cell-based. To be noted: up to 1 μM, rotenone 10 μM, 48 h. The protocol:
The medium was removed and compounds were added at the indicated concentrations in fresh growth medium, and the cells were incubated for another 2 h. Rotenone was then added at a final concentration of 10 μM, and the plates were then incubated for 48 h. Cell viability was assessed by MTT assay.

In series [4] the test system is intracellular oxidative stress in MC65 cells. The experiment in a line: ROS production assay in MC65 cells (DCFH-DA). It is filed as cell-based. Particulars: −TC, 48 h, DCFH-DA 25 μM, read-out: IC50 for suppression of intracellular oxidative stress. On the procedure: Cells were harvested, washed twice with cold PBS, then suspended in PBS and incubated with DCFH-DA (25 μM) in dark for 1 h. Fluorescence was analyzed by flow cytometry using a Millipore Guava® easyCyte flow cytometer.

The next series addresses T1, Aβ42 (Homo sapiens, UniProt P05067).
T1 construct: purchased American Peptide, Inc. (Sunnyvale, Calif.)
The experiment in a line: AFM analysis of Aβ42 fibril and oligomer formation. It is filed as biochemical. To be noted: 1:1 ratio with Aβ42, 24 h. The protocol: Aβ42 oligomers and fibrils were prepared based on reported procedures.^43 Indicated compounds were incubated with Aβ42 at a 1:1 ratio for both conditions for 24 h. Samples were loaded on mica, washed extensively with water, and dried overnight at room temperature before AFM analysis. The morphology of the Aβ42 aggregates was assessed using an atomic force microscope (Dimension Icon, Bruker) operating in tapping mode in air. The scan rate was varied between 1 Hz and 0.5 Hz depending on the tracking quality. The silicon tips (Bruker mpp2100-100) have a sharpness of less than 5 nm and a force constant between 3 and 5 N/m along with a resonant frequency rated between […]. All images were taken with 512 points per line, with a 1:1 ratio. Images were processed using Nanoscope analysis software version 1.20 and Image-J (from the National Institutes of Health).

SMILES strings stand for the structures. Entries after “also recorded” stand apart in the source; their conditions may differ.

What is called EC50 is the concentration giving half of the maximal effect. Usually IC50 stands for the concentration needed to halve the response being measured.

T1 sequence (P05067 672-713 limits assumed): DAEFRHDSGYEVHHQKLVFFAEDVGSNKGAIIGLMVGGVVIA

In the case of `COc1ccc2[nH]cc(CCNC(=O)CC(=O)CCc3ccc(O)cc3)c2c1` [Compound 7, 5-(4-hydroxy-phenyl)-3-oxo-pentanoic acid [2-(5-methoxy-1H-indol-3-yl)-ethyl]-amide], the “protection from H2O2-induced cytotoxicity” value in the series with HT22 cells is on record as “no protection”. Besides, in series [1], the “effect on the production of AβOs (tetramers, pentamers, heptamers)” value was “moderate inhibitory effects; also recorded: dose-dependently suppressed”. Further, the “neuroprotection of MC65 cells from −TC induced cell death” value with MC65 cells [2] (0.3 μM, −TC, 72 h, MTT) is “significant and comparable protection”. Also, the EC50 in the series on MC65 cells [2] (MC65, 72 h, read-out: EC50 for neuroprotection of MC65 cells) amounted to 27.6 ± 9.4 nM. Further, the “protection from rotenone-induced cytotoxicity” value in the series with MC65 cells [3] was “did not show protection”. Moreover, in series [4], the IC50 was roughly 68 nM. The “inhibition of fibrillization and oligomerization of Aβ42 (AFM)” value on Aβ42 was “no inhibition”.
